Results on 22 compounds are retold here after patent publication US12679822B2, “Alkenyl pyrimidine compound, preparation method therefor, and application thereof” (Hongyun Biotech Co., Ltd., priority 2020, dated 2026).

Holding throughout (format): cell-based
Assay [1] concerns the target BaF3 cell lines stably transfected with kinase EGFR L858R/T790M (Homo sapiens, UniProt P00533, T790M/L858R, cells depend on it). The assay can be described thus: Growth inhibition of BaF3 cell line stably transfected with kinase EGFR L858R/T790M (MTS). To be noted: 48 h, read-out: growth inhibitory activity IC50, L858R/T790M. The gist of the method: (§1)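 Compounds tested at 8 concentrations, top 10 μM with stepwise ⅓ dilution, 0.1% DMSO, for 48 h at 37 °C, 5% CO2. MTS/PES reagent then added for 1-4 h and OD read at 490 nm. Inhibition calculated against DMSO and cell-free blank controls; IC50 fitted from inhibition rates.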

The target in assay [2] is BaF3 cell lines stably transfected with kinase EGFR L858R/T790M/C797S (Homo sapiens, UniProt P00533, T790M/C797S/L858R, cells depend on it). Put plainly: Growth inhibition of BaF3 cell line stably transfected with kinase EGFR L858R/T790M/C797S (MTS). The settings on record: 48 h, read-out: growth inhibitory activity IC50, L858R/T790M/C797S. The gist of the method:
as §1

For assay [3], the target named is BaF3 cell lines stably transfected with kinase EGFR Del/T790M/C797S (Homo sapiens, UniProt P00533, T790M/C797S, cells depend on it, form not given). Put plainly: Growth inhibition of BaF3 cell line stably transfected with kinase EGFR Del/T790M/C797S (MTS). To be noted: 48 h, read-out: growth inhibitory activity IC50, Del/T790M/C797S. The gist of the method:
as §1

The target of assay [4] is BaF3 cell lines stably transfected with kinase EGFR Del/T790M (Homo sapiens, UniProt P00533, T790M, cells depend on it, form not given). Put plainly: Growth inhibition of BaF3 cell line stably transfected with kinase EGFR Del/T790M (MTS). To be noted: 48 h, read-out: growth inhibitory activity IC50, Del/T790M. The procedure, abridged: as §1
In assay [5] the target is BaF3 cell lines stably transfected with kinase EGFR L858R (Homo sapiens, UniProt P00533, L858R, cells depend on it). Put plainly: Growth inhibition of BaF3 cell line stably transfected with kinase EGFR L858R (MTS). To be noted: 48 h, read-out: growth inhibitory activity IC50, L858R. The gist of the method:
as §1

For assay [6], the target named is BaF3 cell lines stably transfected with kinase EGFR Del (Homo sapiens, UniProt P00533, cells depend on it, form not given). The assay can be described thus: Growth inhibition of BaF3 cell line stably transfected with kinase EGFR Del (MTS). The settings on record: 48 h, read-out: growth inhibitory activity IC50, Del. The procedure, abridged:
as §1

A value given as a limit tells only on which side of the number the result lay.

BaF3 cell lines stably transfected with kinase EGFR L858R/T790M/C797S, sequence (P00533 whole entry T790M/C797S/L858R): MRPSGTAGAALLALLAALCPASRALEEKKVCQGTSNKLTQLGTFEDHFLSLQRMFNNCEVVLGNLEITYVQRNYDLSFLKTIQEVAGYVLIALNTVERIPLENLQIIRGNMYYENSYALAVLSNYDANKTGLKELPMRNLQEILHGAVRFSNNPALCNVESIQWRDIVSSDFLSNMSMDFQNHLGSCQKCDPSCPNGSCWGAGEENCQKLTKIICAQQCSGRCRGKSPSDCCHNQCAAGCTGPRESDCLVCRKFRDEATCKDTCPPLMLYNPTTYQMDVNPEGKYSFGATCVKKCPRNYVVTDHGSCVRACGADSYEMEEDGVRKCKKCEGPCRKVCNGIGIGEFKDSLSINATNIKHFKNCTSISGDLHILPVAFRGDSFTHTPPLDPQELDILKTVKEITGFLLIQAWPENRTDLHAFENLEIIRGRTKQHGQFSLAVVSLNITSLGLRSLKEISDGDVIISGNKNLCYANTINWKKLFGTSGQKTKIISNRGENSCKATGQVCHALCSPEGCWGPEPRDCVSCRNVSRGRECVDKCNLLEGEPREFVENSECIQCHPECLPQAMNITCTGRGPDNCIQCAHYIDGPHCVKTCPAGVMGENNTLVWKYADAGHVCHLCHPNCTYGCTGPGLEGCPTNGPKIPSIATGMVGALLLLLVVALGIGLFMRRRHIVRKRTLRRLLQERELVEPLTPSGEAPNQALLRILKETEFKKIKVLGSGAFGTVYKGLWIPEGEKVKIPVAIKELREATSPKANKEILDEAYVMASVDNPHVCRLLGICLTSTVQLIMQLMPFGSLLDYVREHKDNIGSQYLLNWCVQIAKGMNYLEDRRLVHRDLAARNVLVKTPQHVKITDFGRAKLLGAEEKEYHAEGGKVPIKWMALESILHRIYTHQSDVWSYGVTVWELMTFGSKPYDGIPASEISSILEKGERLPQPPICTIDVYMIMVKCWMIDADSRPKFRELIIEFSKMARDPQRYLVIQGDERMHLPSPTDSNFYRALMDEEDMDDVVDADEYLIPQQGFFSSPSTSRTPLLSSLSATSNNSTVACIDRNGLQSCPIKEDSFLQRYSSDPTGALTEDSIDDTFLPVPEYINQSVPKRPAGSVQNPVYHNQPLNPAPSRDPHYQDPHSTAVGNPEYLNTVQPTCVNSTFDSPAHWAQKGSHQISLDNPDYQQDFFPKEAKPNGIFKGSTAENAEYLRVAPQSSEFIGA
BaF3 cell lines stably transfected with kinase EGFR Del/T790M/C797S, sequence (P00533 with tags, fused parts or gaps DEL746-750/T790M/C797S, form open): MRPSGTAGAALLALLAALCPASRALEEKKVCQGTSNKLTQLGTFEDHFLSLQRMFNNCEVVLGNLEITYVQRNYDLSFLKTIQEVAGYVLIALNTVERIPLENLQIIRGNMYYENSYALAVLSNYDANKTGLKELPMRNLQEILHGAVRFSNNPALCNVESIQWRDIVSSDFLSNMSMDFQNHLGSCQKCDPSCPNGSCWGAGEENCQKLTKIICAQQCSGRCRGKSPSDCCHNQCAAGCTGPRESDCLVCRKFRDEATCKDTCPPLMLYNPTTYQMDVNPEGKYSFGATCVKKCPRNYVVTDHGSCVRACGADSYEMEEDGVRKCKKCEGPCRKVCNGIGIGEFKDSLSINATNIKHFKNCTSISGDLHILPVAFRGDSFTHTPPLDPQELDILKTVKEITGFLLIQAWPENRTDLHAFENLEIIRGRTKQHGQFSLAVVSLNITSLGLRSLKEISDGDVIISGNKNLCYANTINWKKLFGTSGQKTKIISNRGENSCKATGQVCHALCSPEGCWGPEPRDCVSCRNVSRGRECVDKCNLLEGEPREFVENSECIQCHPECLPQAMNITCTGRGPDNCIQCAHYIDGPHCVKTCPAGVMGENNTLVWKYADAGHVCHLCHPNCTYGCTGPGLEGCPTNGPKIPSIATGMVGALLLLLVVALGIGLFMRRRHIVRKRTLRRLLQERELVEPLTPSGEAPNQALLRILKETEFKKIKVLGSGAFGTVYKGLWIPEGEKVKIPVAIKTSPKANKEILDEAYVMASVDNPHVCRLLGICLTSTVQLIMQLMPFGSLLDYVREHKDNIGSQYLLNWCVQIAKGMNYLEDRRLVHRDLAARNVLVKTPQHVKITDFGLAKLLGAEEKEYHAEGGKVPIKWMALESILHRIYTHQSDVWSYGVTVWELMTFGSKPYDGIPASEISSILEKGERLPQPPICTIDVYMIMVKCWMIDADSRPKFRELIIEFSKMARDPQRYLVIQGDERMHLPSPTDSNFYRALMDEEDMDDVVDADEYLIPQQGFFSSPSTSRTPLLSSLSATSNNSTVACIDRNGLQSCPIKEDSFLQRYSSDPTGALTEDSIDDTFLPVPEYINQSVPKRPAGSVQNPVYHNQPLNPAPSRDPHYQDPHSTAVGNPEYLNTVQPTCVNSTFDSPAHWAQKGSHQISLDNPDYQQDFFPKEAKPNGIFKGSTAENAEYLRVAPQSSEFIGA
BaF3 cell lines stably transfected with kinase EGFR Del/T790M, sequence (P00533 with tags, fused parts or gaps DEL746-750/T790M, form open): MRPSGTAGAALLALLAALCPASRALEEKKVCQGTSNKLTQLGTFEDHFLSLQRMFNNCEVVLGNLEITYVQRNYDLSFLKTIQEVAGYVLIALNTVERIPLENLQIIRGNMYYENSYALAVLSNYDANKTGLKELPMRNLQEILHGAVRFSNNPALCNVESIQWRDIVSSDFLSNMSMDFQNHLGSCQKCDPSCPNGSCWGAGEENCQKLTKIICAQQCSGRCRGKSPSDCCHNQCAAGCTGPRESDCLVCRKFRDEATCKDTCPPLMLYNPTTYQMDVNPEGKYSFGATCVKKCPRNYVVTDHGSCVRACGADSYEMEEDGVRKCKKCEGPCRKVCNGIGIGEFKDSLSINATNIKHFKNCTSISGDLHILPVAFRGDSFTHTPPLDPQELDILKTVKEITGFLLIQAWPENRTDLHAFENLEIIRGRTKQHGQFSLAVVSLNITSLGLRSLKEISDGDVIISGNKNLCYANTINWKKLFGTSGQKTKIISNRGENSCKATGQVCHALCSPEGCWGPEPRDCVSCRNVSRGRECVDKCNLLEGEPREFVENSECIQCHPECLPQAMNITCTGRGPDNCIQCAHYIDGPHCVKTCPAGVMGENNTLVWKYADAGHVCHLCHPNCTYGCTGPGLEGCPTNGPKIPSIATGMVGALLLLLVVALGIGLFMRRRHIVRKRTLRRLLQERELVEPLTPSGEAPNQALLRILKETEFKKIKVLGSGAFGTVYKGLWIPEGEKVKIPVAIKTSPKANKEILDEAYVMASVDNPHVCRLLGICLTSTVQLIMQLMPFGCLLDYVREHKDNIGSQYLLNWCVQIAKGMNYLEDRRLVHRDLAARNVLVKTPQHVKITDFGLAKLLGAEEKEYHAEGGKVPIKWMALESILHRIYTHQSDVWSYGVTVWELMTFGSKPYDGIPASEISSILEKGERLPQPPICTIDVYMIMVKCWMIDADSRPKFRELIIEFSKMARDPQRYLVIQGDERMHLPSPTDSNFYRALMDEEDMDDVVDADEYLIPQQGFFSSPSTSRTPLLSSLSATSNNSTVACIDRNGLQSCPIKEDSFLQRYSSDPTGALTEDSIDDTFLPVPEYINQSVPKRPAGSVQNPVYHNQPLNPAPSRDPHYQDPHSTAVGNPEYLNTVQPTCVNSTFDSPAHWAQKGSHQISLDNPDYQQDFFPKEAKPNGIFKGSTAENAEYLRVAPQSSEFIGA
BaF3 cell lines stably transfected with kinase EGFR L858R, sequence (P00533 whole entry L858R): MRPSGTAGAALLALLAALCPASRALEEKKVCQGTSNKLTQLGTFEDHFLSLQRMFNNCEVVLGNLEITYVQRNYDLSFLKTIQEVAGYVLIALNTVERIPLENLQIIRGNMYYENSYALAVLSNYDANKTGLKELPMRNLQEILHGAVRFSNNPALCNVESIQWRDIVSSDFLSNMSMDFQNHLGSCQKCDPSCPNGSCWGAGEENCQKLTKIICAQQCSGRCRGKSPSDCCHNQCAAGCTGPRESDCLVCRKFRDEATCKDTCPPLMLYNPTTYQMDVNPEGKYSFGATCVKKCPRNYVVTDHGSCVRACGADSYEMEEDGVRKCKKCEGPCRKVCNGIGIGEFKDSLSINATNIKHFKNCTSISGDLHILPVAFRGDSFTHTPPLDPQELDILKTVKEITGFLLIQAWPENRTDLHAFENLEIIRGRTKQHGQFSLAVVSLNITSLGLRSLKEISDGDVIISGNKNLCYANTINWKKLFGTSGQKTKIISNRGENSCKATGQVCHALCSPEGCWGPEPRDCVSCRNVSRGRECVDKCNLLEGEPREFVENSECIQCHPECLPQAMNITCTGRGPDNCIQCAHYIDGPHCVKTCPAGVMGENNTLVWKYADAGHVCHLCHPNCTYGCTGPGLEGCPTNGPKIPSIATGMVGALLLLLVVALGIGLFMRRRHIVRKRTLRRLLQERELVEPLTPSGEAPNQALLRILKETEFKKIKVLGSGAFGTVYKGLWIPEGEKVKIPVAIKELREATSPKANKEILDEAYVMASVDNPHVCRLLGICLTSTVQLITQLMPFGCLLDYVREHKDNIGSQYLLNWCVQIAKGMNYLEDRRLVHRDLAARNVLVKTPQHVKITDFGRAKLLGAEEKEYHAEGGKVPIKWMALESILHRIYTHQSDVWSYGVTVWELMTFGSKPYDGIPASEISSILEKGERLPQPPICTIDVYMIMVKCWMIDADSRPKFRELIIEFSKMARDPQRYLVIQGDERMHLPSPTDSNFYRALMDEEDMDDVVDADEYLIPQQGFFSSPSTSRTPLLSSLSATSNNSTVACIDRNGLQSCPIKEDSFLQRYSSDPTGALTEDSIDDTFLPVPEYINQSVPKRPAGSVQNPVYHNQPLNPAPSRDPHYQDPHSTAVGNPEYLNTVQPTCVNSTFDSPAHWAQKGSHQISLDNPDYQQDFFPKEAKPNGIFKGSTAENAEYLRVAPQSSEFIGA

With `C=Cc1cnc(Nc2cc(F)c(N3CCC(N4CCN(C)CC4)CC3)c(F)c2)nc1Nc1ccc2nccnc2c1NS(C)(=O)=O` [II-46], the GI50 in assay [1] is ≤ 50 nM; in assay [2], 50 to 500 nM; in assay [3] it was 50 to 500 nM; in assay [4], 50 to 500 nM; in assay [5], 50 to 500 nM; in assay [6], 50 to 500 nM.

In the case of `C=Cc1cnc(Nc2cc(CC)c(NCCO)cc2OC)nc1Nc1ccc2nccnc2c1N(C)S(C)(=O)=O` [II-49], the GI50 in assay [1] lay within 50 to 500 nM; in assay [2], 50 to 500 nM; in assay [3], 50 to 500 nM; in assay [4], 500 to 2500 nM; in assay [5] it was 500 to 2500 nM; in assay [6], 500 to 2500 nM.

Regarding `C=Cc1cnc(Nc2cc(CC)c(NCCN(C)C)cc2OC)nc1Nc1ccc2nccnc2c1N(C)S(C)(=O)=O` [II-50], the GI50 in assay [1] was in the range of 50 to 500 nM; in assay [2] it was 50 to 500 nM; in assay [3], 50 to 500 nM; in assay [4] it was 50 to 500 nM; in assay [5], 500 to 2500 nM; in assay [6] it was 500 to 2500 nM.

With `C=Cc1cnc(Nc2cc(CC)c(N(C)CCN(C)C)cc2OC)nc1Nc1ccc2nccnc2c1N(C)S(C)(=O)=O` [II-51], the GI50 is 50 to 500 nM in assay [1]; 50 to 500 nM in assay [2]; 50 to 500 nM in assay [3]; 50 to 500 nM in assay [4]; 500 to 2500 nM in assay [5]; 50 to 500 nM in assay [6].

As for `C=Cc1cnc(Nc2cc(CC)c(N3CCC(N4CCNCC4)CC3)cc2OC)nc1Nc1ccc2nccnc2c1N(C)S(C)(=O)=O` [II-52], the GI50 is ≤ 50 nM in assay [1]; ≤ 50 nM in assay [2]; ≤ 50 nM in assay [3]; 50 to 500 nM in assay [4]; 50 to 500 nM in assay [5]; 50 to 500 nM in assay [6].

With `C=Cc1cnc(Nc2cc(CC)c(N3CCC(N4CCN(C)CC4)CC3)cc2OC)nc1Nc1ccc2nccnc2c1N(C)S(C)(=O)=O` [II-53], the GI50 in assay [1] was 50 to 500 nM; in assay [2], ≤ 50 nM; in assay [3], ≤ 50 nM; in assay [4], 50 to 500 nM; in assay [5] it was 50 to 500 nM; in assay [6] it was 50 to 500 nM.

For the compound `C=Cc1cnc(Nc2cc(CC)c(N3CCC(C4CN(C)C4)CC3)cc2OC)nc1Nc1ccc2nccnc2c1N(C)S(C)(=O)=O` [II-54], the GI50 in assay [1] is 50 to 500 nM; in assay [2], ≤ 50 nM; in assay [3] it was ≤ 50 nM; in assay [4] it was ≤ 50 nM; in assay [5], ≤ 50 nM; in assay [6], ≤ 50 nM.

Regarding `C=Cc1cnc(Nc2cc(CC)c(N3CCC4(CC3)CC(N(C)C)C4)cc2OC)nc1Nc1ccc2nccnc2c1N(C)S(C)(=O)=O` [II-55], the GI50 in assay [1], in assay [2], in assay [3], in assay [4], in assay [5] and in assay [6] was 50 to 500 nM throughout.

As for `C=Cc1cnc(Nc2cc[nH]n2)nc1Nc1ccc2nccnc2c1N(C)S(C)(=O)=O` [II-59], the GI50 in assay [1] lay in the range of 500 to 2500 nM; in assay [2], 500 to 2500 nM; in assay [3], 500 to 2500 nM; in assay [4], 500 to 2500 nM; in assay [5] it was 500 to 2500 nM; in assay [6], 50 to 500 nM.

Consider `C=Cc1cnc(Nc2ccn(CC)n2)nc1Nc1ccc2nccnc2c1N(C)S(C)(=O)=O` [II-60], for which the GI50 in assay [1] was 500 to 2500 nM; in assay [2], 50 to 500 nM; in assay [3], 50 to 500 nM; in assay [4], 500 to 2500 nM; in assay [5] it was 50 to 500 nM; in assay [6], 50 to 500 nM.

With `C=Cc1cnc(Nc2ccn(C(C)C)n2)nc1Nc1ccc2nccnc2c1N(C)S(C)(=O)=O` [II-61], the GI50 is 500 to 2500 nM in assay [1]; 50 to 500 nM in assay [2]; 50 to 500 nM in assay [3]; 500 to 2500 nM in assay [4]; ≤ 50 nM in assay [5]; 500 to 2500 nM in assay [6].

With `C=Cc1cnc(Nc2cc(C)n(C)n2)nc1Nc1ccc2nccnc2c1N(C)S(C)(=O)=O` [II-62], the GI50 was in the range of 500 to 2500 nM in assay [1]; 50 to 500 nM in assay [2]; 50 to 500 nM in assay [3]; 500 to 2500 nM in assay [4]; 500 to 2500 nM in assay [5]; 500 to 2500 nM in assay [6].

As to `C=Cc1cnc(Nc2cc(CC)n(C)n2)nc1Nc1ccc2nccnc2c1N(C)S(C)(=O)=O` [II-63], the GI50 was in the range of 50 to 500 nM in assay [1]; 50 to 500 nM in assay [2]; 50 to 500 nM in assay [3]; 50 to 500 nM in assay [4]; 500 to 2500 nM in assay [5]; 50 to 500 nM in assay [6].

Consider `C=Cc1cnc(Nc2cnn(C)c2)nc1Nc1ccc2nccnc2c1N(C)S(C)(=O)=O` [II-65], for which the GI50 in assay [1], in assay [2], in assay [3], in assay [4], in assay [5] and in assay [6] was 50 to 500 nM throughout.

Consider `C=Cc1cnc(Nc2cnn(CC)c2)nc1Nc1ccc2nccnc2c1N(C)S(C)(=O)=O` [II-66], for which the GI50 in assay [1] is 500 to 2500 nM; in assay [2], 500 to 2500 nM; in assay [3], 50 to 500 nM; in assay [4], 500 to 2500 nM; in assay [5], 500 to 2500 nM; in assay [6] it was 500 to 2500 nM.

For the compound `C=Cc1cnc(Nc2cn(CC)nc2C)nc1Nc1ccc2nccnc2c1N(C)S(C)(=O)=O` [II-67], the GI50 in assay [1], in assay [2], in assay [3], in assay [4], in assay [5] and in assay [6] was 50 to 500 nM in each case.

Consider `C=Cc1cnc(Nc2cn(CC)nc2C)nc1Nc1ccc2nccnc2c1N(C)S(C)(=O)=O` [II-68], for which the GI50 lay in the range of 500 to 2500 nM in assay [1]; 50 to 500 nM in assay [2]; 50 to 500 nM in assay [3]; 500 to 2500 nM in assay [4]; 50 to 500 nM in assay [5]; 50 to 500 nM in assay [6].

With `C=C(C)c1cnc(Nc2cc[nH]n2)nc1Nc1ccc2nccnc2c1N(C)S(C)(=O)=O` [II-69], the GI50 in assay [1] lay within 50 to 500 nM; in assay [2], 50 to 500 nM; in assay [3], 500 to 2500 nM; in assay [4], 500 to 2500 nM; in assay [5] it was 50 to 500 nM; in assay [6], 50 to 500 nM.

Regarding `C=C(C)c1cnc(Nc2cn[nH]c2)nc1Nc1ccc2nccnc2c1N(C)S(C)(=O)=O` [II-70], the GI50 is ≤ 50 nM in assay [1]; 50 to 500 nM in assay [2]; ≤ 50 nM in assay [3]; 50 to 500 nM in assay [4]; 50 to 500 nM in assay [5]; 50 to 500 nM in assay [6].

For `C=C(C)c1cnc(Nc2cnn(C)c2)nc1Nc1ccc2nccnc2c1N(C)S(C)(=O)=O` [II-71], the GI50 is ≤ 50 nM in assay [1]; 50 to 500 nM in assay [2]; ≤ 50 nM in assay [3]; ≤ 50 nM in assay [4]; 50 to 500 nM in assay [5]; 50 to 500 nM in assay [6].

For the compound `C=Cc1cnc(Nc2cc3c(cc2C)CCN(C)C3)nc1Nc1ccc2nccnc2c1N(C)S(C)(=O)=O` [II-72], the GI50 was 50 to 500 nM in assay [1]; ≤ 50 nM in assay [2]; 50 to 500 nM in assay [3]; 500 to 2500 nM in assay [4]; 50 to 500 nM in assay [5]; 50 to 500 nM in assay [6].

Take `C=Cc1cnc(Nc2cc3c(cc2OC)CCN(C)C3)nc1Nc1ccc2nccnc2c1N(C)S(C)(=O)=O` [II-73]: the GI50 in assay [1] fell in the range of 500 to 2500 nM; in assay [2], 50 to 500 nM; in assay [3] it was 500 to 2500 nM; in assay [4], 500 to 2500 nM; in assay [5], 500 to 2500 nM; in assay [6], 500 to 2500 nM.
